From US12049615B2, “Systems and methods for electronically and optically monitoring biological samples” (Agilent Technologies, Inc., priority 2020, dated 2024) come the findings set out here.

“Also recorded” adds a separate entry of the source. Where a SMILES comes first, the peptide text is derived from it. The star is where a group is joined. Cbz = O=C(OCc1ccccc1)*

In general, EC50 refers to the concentration giving half of the maximal effect.

Experiment [1] deals with A549-Blue cells. The experiment is described as follows: Real-time cell-substrate impedance monitoring of drug-induced apoptosis. The settings on record: for change of impedance signal after drug addition: addition at the 25-hour time point, time- and dose-dependent. It is filed as cell-based. As for the experimental part:
(§1) Cell maintenance and assays were conducted at 37° C./5% CO2 in F-12K media (ATCC; catalog number 30-2004) containing 10% heat-inactivated FBS (Corning, catalog number 35016CV). While impedance was measured every 15 minutes, images were acquired once per hour. In each well, four fields of view were captured for each channel (brightfield, red, green, and blue). Exposure times were as follows: red (300 ms), green (300 ms), and blue (80 ms). The A549-Blue cell line, which stably expresses nuclear-localized blue fluorescent protein (BFP), was produced by transducing A549 cells (ATCC; catalog number CCL-185) with Agilent eLenti Blue (p/n 8711012) at a multiplicity of infection of 1. From day 2 to day 11 postinfection, 1 μg/mL puromycin was included in the growth medium to select for transductants. For real-time visualization of activated caspase 3, Agilent eCaspase 3 NucView 488 (p/n 8711005) was included in growth medium at a concentration of 5 μm. For real-time visualization of translocated phosphatidylserine, Agilent eAnnexin V Red (p/n 8711007) was included in growth medium at a concentration of 0.25 μg/mL. Agilent E-Plate VIEW microplates (p/n 00300601030) were also used. MG132 (Tocris; catalog number 1748/5) and staurosporine (Calbiochem; catalog number 569396) stocks were dissolved in DMSO.
A549-Blue cells (described above) were seeded into an E-PATE VIEW at a density of 10,000 cells/well. As the cells proliferate over the first day, they occupy an expanding surface area on the biosensor array, causing the impedance signal to rise steadily (FIG. 11A and FIG. 11B). If left untreated, the cells grow to confluence, saturating the biosensor array and giving a plateaued impedance signal. […] The kinetics of these drug-induced responses, and the overall shape of the impedance traces, are distinct for each compound. […] Although MG132 and staurosporine both induce apoptosis, they elicit distinct cellular behaviors en route to cell death, which becomes strikingly clear when real-time impedance is multiplexed with live cell imaging.

Experiment [2] has as its system A549-Blue cells. The experiment is described as follows: Live cell imaging (blue nuclei, % confluence, caspase 3, annexin V) of drug-treated cells. It counts as cell-based. The note with it: for total number of blue nuclei: four highest concentrations (MG132 1.9, 5.5, 16.7, 50 μm; staurosporine 0.125-1 μm, over the subsequent 60 hours). As for the experimental part: as §1
Although A549-Blue cells already cover most of the well bottom by the 26-hour time point, in the absence of drug, they continue proliferating for another 50 hours, packing cells together at higher density (FIG. 12A). Consistent with this, the impedance signal plateaus at roughly 30 hours while the total number of blue nuclei continues to increase until ˜80 hours (FIG. 12A). Blue nuclei count is Obtained by an image processing algorithm to count the number of blue objects in the blue-fluorescent image. Each blue nuclei nucleus corresponds to an A549 cell as it was transduced to expresses nuclear-localized blue fluorescent protein. As such the number of blue nuclei in a well correspond to the number of viable A549-blue cells present in the well. […] Although, over time, these nuclei shrink in size and begin clustering together, they largely remain intact, explaining why the number of blue nuclei stays fairly constant in FIG. 12C. The above coupling of impedance with imaging clearly provides a more complete and nuanced understanding of drug-mediated A549 cell killing than would be possible using either technique alone. Moving beyond simple cell counts, we next probed the kinetics of biochemical phenomena that are specific to the apoptotic killing pathway.
Along with impedance and blue nuclei counts, the induction of apoptosis by MG132 was also tracked by percent cellular confluence, caspase 3 activation (causing cells to fluoresce green), and phosphatidylserine translocation (causing cells to fluoresce red). […] The bold white arrows in the panels for the 20- and 40-hour time points highlight large membrane blebs that contain phosphatidylserine in their outer leaflet.
Next, the continuous response of A549-Blue cells to MG132 was plotted using each of the image-based readouts. Blue nuclei counts (FIG. 14A) (FIG. 14A) display a dependency on drug concentration that closely reflects the impedance responses seen in (FIG. 11A), Despite the extensive apoptotic response, throughout the course of this assay the % cellular confluence never drops below 50% (FIG. 14B), where the cell confluence number is derived from bright field images through image processing algorithms. This is consistent with the fact that, unlike in vivo contexts, where apoptotic cells and their debris are removed through phagocytosis, in vitro, a large percentage of apoptotic cells continue to occupy the well bottom (FIG. 12B). […] Considering the number of cells that were seeded, their rate of growth, and the percentage of cells that display apoptotic markers (FIG. 13), the output numbers in FIGS. 14A-C are consistent with expectations. […]

Experiment [3] concerns A549-Blue cells. As to the kind of experiment: EC50 from dose response curves of impedance and image-based readouts (area under the curve). The settings on record: area under the curve from drug addition to 60 hours after; four readouts (normalized cell index, green cell number, red cell number, blue nuclei number); four-parameter logistic fit. As for the experimental part:
FIG. 16 provides a table and graphs showing the use of dose response curves to calculate EC50. Using real-time impedance (as represented by normalized cell index) data (FIG. 11A) and live cell imaging (green cell number, red cell number and blue nuclei number) data (FIGS. 14A-C), area under the curve was calculated, and is plotted here as a function of MG132 concentration. Data were fit to a four-parameter logistic equation to determine the EC50.
Using the impedance and image-based readouts presented in Examples II-IV, the EC50 for MG132 was calculated. The area under the curve, spanning from the time of drug addition to 60 hours after drug addition, was plotted as a function of MG132 concentration to yield the dose response curves seen in FIG. 16. The quality of the fitting for the four different readouts is quite good, with R2 values ranging from 0.96 to 0.98. The calculated EC50 values range from 0.86 to 3.0 μm, which is consistent with values reported in the literature. See Han, Y. H. et al. The Effect of MG132, a Proteasome Inhibitor on HeLa Cells in Relation to Cell Growth, Reactive Oxygen Species and GSH. Oncol. Rep. 2009, 22(1), 215-21.

Regarding `CC(C)C[C@@H](C=O)NC(=O)[C@H](CC(C)C)NC(=O)[C@H](CC(C)C)NC(=O)OCc1ccccc1` [MG132] (Cbz-Leu-Leu-Leu-aldehyde), the “change of impedance signal after drug addition” value in the experiment with A549-Blue cells [1] is reported as “marked decrease”. Also, the “impedance signal at high concentrations” value in the experiment on A549-Blue cells [1] (high concentrations of MG132 (FIG. 11A)) is given as “drop to zero; also recorded: dropped to zero”. Moreover, the “number of caspase 3-activated cells exceeds number of phosphatidylserine translocated cells by” value in the experiment with A549-Blue cells [2] (50 μM MG132, 40 hours following the first 20 hours of drug treatment) is given as “approximately 20%”. Also, the “time at which the number of blue nuclei begins to decrease” value with A549-Blue cells [2] (after drug addition, 50 μM MG132 (FIG. 15), same time caspase 3 activation and phosphatidylserine translocation become detectable) was ~10 h. Besides, the “number of caspase 3 positive (fluorescence green) objects” value in the experiment with A549-Blue cells [2] (dependent on MG132 concentration (FIG. 14C)) is on record as “increase over time”. In addition, the “number of annexin V positive (fluorescent red) objects” value with A549-Blue cells [2] (dependent on MG132 concentration (FIG. 14D)) is “increase over time”. For the same molecule, the “total number of blue nuclei” value in the experiment on A549-Blue cells [2] was “decreases over time”. In addition, the EC50 in the experiment with A549-Blue cells [3] lay within 860 to 3000 nM.

In the case of `CN[C@@H]1C[C@H]2O[C@@](C)([C@@H]1OC)n1c3ccccc3c3c4c(c5c6ccccc6n2c5c31)C(=O)NC4` [staurosporine], the “change of impedance signal after drug addition” value in the experiment on A549-Blue cells [1] was “marked decrease”. Further, the “impedance response at the four highest concentrations” value in the experiment with A549-Blue cells [1] (staurosporine 0.125, 0.250, 0.500, and 1 μm) is on record as “plummet within the first few minutes”. For the same molecule, the “total number of blue nuclei” value with A549-Blue cells [2] is “modest impact”. Moreover, in the experiment with A549-Blue cells [2] (one hour after staurosporine addition), the “cell morphology by live cell imaging” value was “shrunk so severely that their cytoplasm is barely visible; also recorded: massive cytoplasmic shrinkage”.
